Measured values taken from patent publication US11389423B2, “Pharmaceutical composition, excipient for the composition and use of the composition” (priority 2018, dated 2022).

Tests used:
[1] = test system: polychromatic erythrocytes; details: rats male and female, 500, 1000 and 2000 mg/kg orally
Method: To perform the micronucleus test (Schmid, 1976), different groups of rats (male and female; n=10) received three doses of CBD (500, 1000 and 2000 mg/kg) orally. The negative control group received placebo by gavage and the positive control was treated with cyclophosphamide monohydrate (20 mg/kg—Sigma-Aldrich) intraperitoneally. After 24 hours (cyclophosphamide) and 48 hours (CBD-SINT and vehicle) the end of treatments, the animals were euthanized by decapitation. The femurs were removed, the proximal epiphysis was removed to expose the medullary canal and, with the aid of a 13×4.5 mm needle and 3 mL NaCl solution (150 mM), the marrow was removed, washing the medullary canal with NaCl solution. The material was transferred to glass tubes and centrifuged at 1000 rpm/5 min. After centrifugation, the supernatant was discarded, and the deposit was resuspended with a 4% formaldehyde solution and slightly homogenized with the aid of a Pasteur pipette. A drop of this cell suspension was placed on a clean, dry slide, and then the smear was performed. The slides were dried at room temperature and, after 24 hours, stained with Leishman eosin-methylene blue and subjected to microscopic analysis. To determine the number of micronuclei, 2000 polychromatic erythrocytes were counted per animal (1000 in each slide) using an optical microscope, at 400× magnification. The analysis of the slides was blind and performed by a single evaluator.

[2] = test system: DNA of male and female rats; details: rats male and female, 500, 1000 and 2000 mg/kg orally, 48 hours, peripheral blood
Method: The negative control group received placebo by gavage and the positive control was treated with cyclophosphamide monohydrate (20 mg/kg—Sigma-Aldrich) intraperitoneally.

[3] = test system: Salmonella typhimurium TA98; assay: AMES test, strain TA98; type: cell-based; details: TA98, with (+S9) and without (-S9) metabolic activation, 62.5-375 μg/plate
Description: For the AMES test, the TA 100 and TA 98 strains of Salmonella typhimurium were used. The strain TA 100, which detects mutagens causing base pair replacement in DNA, contains a mutation in the hisG gene (hisG46), which codes for the first histidine biosynthesis enzyme, with the CG pair as the preferred point for reversion. The strain TA 98 has a mutation in the hisD gene to reverse eight repetitive GC residues and detects mutagenic compounds causing the DNA reading frame to shift. According to the methodology of direct incorporation in plates, developed by Maron and Ames (1983), different concentrations of CBD-SINT (375, 250, 125 and 62.5 μg/plate) were mixed with 0.1 mL of the bacteria culture and 2 mL of surface agar (top agar), supplemented with traces of histidine and biotin. For the tests with metabolic activation, 0.5 mL homogenized microsomal fraction S9 of rat liver (post-mitochondrial fraction, supplemented with a cofactor, prepared from the liver of rodents treated with an enzymatic inducing agent, arochloror 1254) (MOLTOX—Molecular Toxicology, USA) were added. As a negative control, double-distilled water (vehicle) was used. As a positive control for TA98, 4-nirophenylenediamine (NPD) dissolved in DMSO was used at a concentration of 10 μg/plate. […] After this period, the number of reversing colonies per plate was counted. […]

[4] = test system: striatal levels of dopamine, DOPAC and AVM; assay: Determination of striatal dopamine, DOPAC and HVA levels (HPLC-ECD), MPTP model; type: in vivo, rats
Method: For the experiments with MPTP (neuroprotection), the animals were divided into the following experimental groups: • MPTP+placebo • MPTP+CBD-SINT 12 mg/kg • MPTP+CBD-SINT 36 mg/kg • MPTP+CBD-SINT 120 mg/kg • Sham+placebo • Naive
CBD-SINT and placebo were administered orally (gavage) for 18 days prior to the administration of the neurotoxin by stereotactic surgery, and for another 10 days after surgery. After the administration of the neurotoxin, the behavioral (locomotor activity) and biochemical (brain dopamine dosage) parameters were evaluated after 24 hours and after 10 days. The memory tests (Morris water maze) were performed daily from day 1 to day 10 after the administration of the neurotoxin (FIG. 13).
The rats were submitted to stereotactic surgery (stereotactic—David Kopf, model 957L) and received bilateral microinfusion of MPTP or 6-OHDA (different groups of rats) directly into the substantia nigra. For surgery, the following stereotaxic coordinates were used: anteroposterior: 5.0 mm from the bregma; mediolateral: ±2.1 mm from the midline and dorsoventral: −7.7 mm from the cranial vault (Paxinos and Watson, 1986). Then, 100 μg MPTP (diluted in 1 μL saline, with a flow of 0.33 μL/min) or 8 μg 6-OHDA (diluted in 2 μL saline with 0.2 μg/μL ascorbic acid, with a flow rate of 0.33 μL/min) were injected. The microinfusions were performed with the aid of a needle (30 gauge) connected to a polyethylene tube adapted to a […] micro-syringe (Hamilton, USA), which in turn, is fitted into an infusion pump (Harvard Apparatus, USA). After the end of the microinfusion, the needle was kept in place for another 2 minutes to prevent reflux of the neurotoxins. Then, the scalp was sutured, and the animals were removed from the stereotaxic. The rats were then placed in its original cages. The animals in the Sham groups were subject to the same surgical procedure, however without receiving the neurotoxins, being only introduced to the needle in the same stereotactic coordinates. The rats of naive groups were not subject to stereotactic surgery but were removed from the housing cage for handling for a few hours.
After the last set of experiments, the animals from the nigrostriatal treatment with MPTP and its respective controls were euthanized by decapitation. The levels of dopamine (DA) and its metabolites 3,4-dihydroxyphenylacetic acid (DOPAC) and homovanilic acid (HVA) were determined by high-performance liquid chromatography with an electrochemical detector (HPLC-ECD) according to Luo et al. (2009).
Briefly, the striatum was dissected, weighed, and homogenized in 0.2 M cold perchloric acid. The sample was then centrifuged twice at 14,000 g for 15 min at 4° C. […]

C=C(C)[C@@H]1CCC(C)=C[C@H]1c1c(O)cc(CCCCC)cc1O [CBD-SINT, Cannabidiol]
ratio of polychromatic/normochromatic erythrocytes (PCE/NCE ratio) vs placebo [1]: did not cause any significant change | MNPCE number vs placebo (C-) ([1]; 48 hours): in a similar way to that found for animals treated only with placebo | DNA damage (Damage Index and Damage Frequency) vs negative control (placebo) [2]: none of the tested doses of CBD-SINT induced any significant changes | frequency of reversible mutants with the increase in concentration [3]: no increase | mutagenicity ratios (MR) [3]: less than 2 | striatal levels of DOPAC ([4]; MPTP rats, 12 mg/kg orally): significantly increase | striatal levels of dopamine ([4]; MPTP rats, 12 mg/kg orally): significantly increase | levels of all markers after treatment vs naive and Sham groups ([4]; MPTP rats, 12, 36 and 120 mg/kg orally): statistically lower | striatal concentration of all evaluated markers (dopamine, DOPAC and AVM) ([4]; MPTP rats, 36 and 120 mg/kg orally): increased
